Measurements as given in ChEMBL document CHEMBL1201862, “PubChem BioAssay data set” (2004).
Each block holds one compound with its values, some of them ahead of it. Calls of active or inactive are those of the source.

Experiments:
Assay type in all cases: functional
[1] = target: Multidrug resistance protein CDR2 (Candida albicans (strain SC5314 / ATCC MYA-2876) (Yeast), UniProt P78595); test: inhibition of Nile Red efflux via Candida CDR2 – S. cerevisiae AD1-8u, singleplex, Cherry Pick1 hits, dose response (AID 588604)
[2] = target: T1, Neuropeptides B/W receptor type 1 (Homo sapiens, UniProt P48145); test: human NPBW1 receptor blockade, IC50 – cell-based, fluorescence, dose response, set 5, late-stage follow-up (AID 588566)
T1 sequence (P48145 whole entry): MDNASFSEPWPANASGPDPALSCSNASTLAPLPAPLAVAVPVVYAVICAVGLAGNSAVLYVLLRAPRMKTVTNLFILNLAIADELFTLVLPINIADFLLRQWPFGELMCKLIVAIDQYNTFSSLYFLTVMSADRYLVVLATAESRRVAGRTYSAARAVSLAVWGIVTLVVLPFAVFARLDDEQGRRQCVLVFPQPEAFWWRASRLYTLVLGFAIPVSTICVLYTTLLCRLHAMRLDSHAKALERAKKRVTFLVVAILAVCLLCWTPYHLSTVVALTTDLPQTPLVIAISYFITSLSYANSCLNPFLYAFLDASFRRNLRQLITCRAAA

[3] = target: Melanin-concentrating hormone receptor 1 (Homo sapiens, UniProt Q99705); test: Late-stage fluorescence-based counterscreen for antagonists of the G-protein coupled receptor 7 (GPR7): cell-based dose response assay to identify antagonists of the melanin-concentrating hormone receptor 1 (MCHR1) Set 5.
[4] = target: Protein kinase C theta type (Homo sapiens, UniProt Q04759); test: Navigating the Kinome. Panel member name: PRKCQ
[5] = target: Ribosomal protein S6 kinase alpha-3 (Homo sapiens, UniProt P51812);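 also: measured within a kinome-wide profiling panel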
[6] = target: Dual specificity protein kinase CLK2 (Homo sapiens, UniProt P49760)
[7] = target: Dual specificity mitogen-activated protein kinase kinase 1 (Homo sapiens, UniProt Q02750); test: Navigating the Kinome. Panel member name: MAP2K1
[8] = target: Tyrosine-protein kinase JAK2 (Homo sapiens, UniProt O60674);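 also: JAK2 tested as one member of a kinase panel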
[9] = target: Serine/threonine-protein kinase TBK1 (Homo sapiens, UniProt Q9UHD2); test: Navigating the Kinome. Panel member name: TBK1
[10] = target: 5'-AMP-activated protein kinase catalytic subunit alpha-1 (Homo sapiens, UniProt Q13131)
[11] = target: ALK tyrosine kinase receptor (Homo sapiens, UniProt Q9UM73);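 also: ALK tested as one member of a kinase panel screen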
[12] = target: Proto-oncogene tyrosine-protein kinase receptor Ret (Homo sapiens, UniProt P07949);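 also: measured within a kinome-wide profiling panel, RET as the panel member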
[13] = target: Tyrosine-protein kinase receptor TYRO3 (Homo sapiens, UniProt Q06418);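 also: TYRO3 value obtained as one member of a kinome-wide profiling panel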
[14] = target: Serine/threonine-protein kinase D3 (Homo sapiens, UniProt O94806);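 also: determined within a kinase panel screen, with PRKCN as the panel member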
[15] = target: Death-associated protein kinase 3 (Homo sapiens, UniProt O43293);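 also: measured as one member of a kinome-wide profiling panel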
Activin receptor type-1 = Activin receptor type-1 (Homo sapiens, UniProt Q04771); test: Navigating the Kinome. Panel member name: ACVR1
[16] = target: Mitogen-activated protein kinase 8 (Homo sapiens, UniProt P45983);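 also: value comes from one member of a kinome-wide kinase profiling panel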
[17] = target: Serine/threonine-protein kinase pim-1 (Homo sapiens, UniProt P11309)
Aurora kinase A = Aurora kinase A (Homo sapiens, UniProt O14965);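 also: value from the Navigating the Kinome kinase panel profiling, panel entry STK6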
Sequence of Aurora kinase A (O14965 whole entry): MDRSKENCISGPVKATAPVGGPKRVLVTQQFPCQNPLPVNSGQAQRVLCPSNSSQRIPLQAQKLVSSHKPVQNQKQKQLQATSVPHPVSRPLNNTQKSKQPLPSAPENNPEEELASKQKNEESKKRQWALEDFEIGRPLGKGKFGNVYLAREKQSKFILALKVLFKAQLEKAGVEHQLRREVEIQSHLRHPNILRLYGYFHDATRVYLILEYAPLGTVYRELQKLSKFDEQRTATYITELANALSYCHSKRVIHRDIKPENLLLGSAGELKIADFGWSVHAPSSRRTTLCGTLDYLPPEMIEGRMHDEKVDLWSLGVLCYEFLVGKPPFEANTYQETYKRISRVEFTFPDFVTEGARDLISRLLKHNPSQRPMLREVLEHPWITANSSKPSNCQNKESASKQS

[18] = target: Serine/threonine-protein kinase PAK 4 (Homo sapiens, UniProt O96013);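 also: value obtained within a kinome profiling panel in which PAK4 was one of the panel members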
[19] = target: Fibroblast growth factor receptor 1 (Homo sapiens, UniProt P11362)
[20] = target: Casein kinase I isoform alpha (Homo sapiens, UniProt P48729)
[21] = target: Tyrosine-protein kinase JAK3 (Homo sapiens, UniProt P52333)
[22] = target: Mitogen-activated protein kinase 9 (Homo sapiens, UniProt P45984);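 also: value from a kinome panel profiling assay, MAPK9 panel entry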
LIM domain kinase 1 = LIM domain kinase 1 (Homo sapiens, UniProt P53667); test: Navigating the Kinome. Panel member name: LIMK1
[23] = target: Serine/threonine-protein kinase TAO1 (Homo sapiens, UniProt Q7L7X3)
[24] = target: Glycogen synthase kinase-3 alpha (Homo sapiens, UniProt P49840);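 also: GSK3A result taken from a broad kinome-wide kinase panel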
[25] = target: Mitogen-activated protein kinase kinase kinase kinase 2 (Homo sapiens, UniProt Q12851);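 also: measured as one member of a kinome-wide kinase panel, with MAP4K2 as the panel entry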
Sequence of Mitogen-activated protein kinase kinase kinase kinase 2 (Q12851 whole entry): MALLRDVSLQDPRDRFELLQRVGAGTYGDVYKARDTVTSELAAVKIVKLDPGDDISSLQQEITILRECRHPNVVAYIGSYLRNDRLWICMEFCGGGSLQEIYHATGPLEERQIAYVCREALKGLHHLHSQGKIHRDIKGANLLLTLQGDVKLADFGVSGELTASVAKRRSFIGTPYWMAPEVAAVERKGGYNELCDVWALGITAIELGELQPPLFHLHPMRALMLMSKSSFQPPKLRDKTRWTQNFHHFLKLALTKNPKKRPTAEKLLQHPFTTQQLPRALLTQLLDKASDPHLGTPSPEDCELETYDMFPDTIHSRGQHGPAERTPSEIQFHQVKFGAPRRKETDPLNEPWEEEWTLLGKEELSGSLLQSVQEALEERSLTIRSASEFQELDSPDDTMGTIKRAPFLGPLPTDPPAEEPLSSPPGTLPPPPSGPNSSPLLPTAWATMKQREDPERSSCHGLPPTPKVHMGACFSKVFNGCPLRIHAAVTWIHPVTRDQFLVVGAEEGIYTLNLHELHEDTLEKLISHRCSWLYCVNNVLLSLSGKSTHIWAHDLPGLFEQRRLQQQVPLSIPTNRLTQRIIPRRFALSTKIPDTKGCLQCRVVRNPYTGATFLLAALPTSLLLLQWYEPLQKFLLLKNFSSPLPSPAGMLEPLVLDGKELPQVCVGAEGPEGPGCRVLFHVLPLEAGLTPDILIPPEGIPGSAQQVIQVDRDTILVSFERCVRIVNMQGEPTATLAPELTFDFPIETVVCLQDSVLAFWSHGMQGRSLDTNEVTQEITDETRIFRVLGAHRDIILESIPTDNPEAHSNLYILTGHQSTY

[26] = target: Hepatocyte growth factor receptor (Homo sapiens, UniProt P08581);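 also: kinase panel profiling across the kinome, with MET as the panel member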
Activated CDC42 kinase 1 = Activated CDC42 kinase 1 (Homo sapiens, UniProt Q07912); test: Navigating the Kinome. Panel member name: ACK1
[27] = target: Receptor-type tyrosine-protein kinase FLT3 (Homo sapiens, UniProt P36888);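 also: FLT3 was tested as one member of a kinome-wide kinase panel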
[28] = target: Serine/threonine-protein kinase Chk1 (Homo sapiens, UniProt O14757);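 also: measured as one member of a kinome-wide kinase profiling panel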
[29] = target: Tyrosine-protein kinase ABL1 (Homo sapiens, UniProt P00519)
[30] = target: Vascular endothelial growth factor receptor 2 (Homo sapiens, UniProt P35968)
[31] = target: G protein-coupled receptor kinase 5 (Homo sapiens, UniProt P34947); test: Navigating the Kinome. Panel member name: GPRK5
[32] = target: Cyclin-dependent kinase 5 (Homo sapiens, UniProt Q00535);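 also: CDK5 measured as one member of a kinase profiling panel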
[33] = target: Insulin-like growth factor 1 receptor (Homo sapiens, UniProt P08069); test: Navigating the Kinome. Panel member name: IGF1R
[34] = target: Dual specificity tyrosine-phosphorylation-regulated kinase 1B (Homo sapiens, UniProt Q9Y463); test: Navigating the Kinome. Panel member name: DYRK1B
[35] = target: cAMP-dependent protein kinase catalytic subunit PRKX (Homo sapiens, UniProt P51817)
[36] = target: Platelet-derived growth factor receptor alpha (Homo sapiens, UniProt P16234); test: Navigating the Kinome. Panel member name: PDGFRA
[37] = target: Leucine-rich repeat serine/threonine-protein kinase 2 (Homo sapiens, UniProt Q5S007);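 also: value from a broad kinome-wide panel profiling study in which LRRK2 was one of the kinases tested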
Aurora kinase B = Aurora kinase B (Homo sapiens, UniProt Q96GD4)
[38] = target: Rho-associated protein kinase 1 (Homo sapiens, UniProt Q13464);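 also: measured within a broad kinome-wide panel profiling many kinases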
Sequence of Rho-associated protein kinase 1 (Q13464 whole entry): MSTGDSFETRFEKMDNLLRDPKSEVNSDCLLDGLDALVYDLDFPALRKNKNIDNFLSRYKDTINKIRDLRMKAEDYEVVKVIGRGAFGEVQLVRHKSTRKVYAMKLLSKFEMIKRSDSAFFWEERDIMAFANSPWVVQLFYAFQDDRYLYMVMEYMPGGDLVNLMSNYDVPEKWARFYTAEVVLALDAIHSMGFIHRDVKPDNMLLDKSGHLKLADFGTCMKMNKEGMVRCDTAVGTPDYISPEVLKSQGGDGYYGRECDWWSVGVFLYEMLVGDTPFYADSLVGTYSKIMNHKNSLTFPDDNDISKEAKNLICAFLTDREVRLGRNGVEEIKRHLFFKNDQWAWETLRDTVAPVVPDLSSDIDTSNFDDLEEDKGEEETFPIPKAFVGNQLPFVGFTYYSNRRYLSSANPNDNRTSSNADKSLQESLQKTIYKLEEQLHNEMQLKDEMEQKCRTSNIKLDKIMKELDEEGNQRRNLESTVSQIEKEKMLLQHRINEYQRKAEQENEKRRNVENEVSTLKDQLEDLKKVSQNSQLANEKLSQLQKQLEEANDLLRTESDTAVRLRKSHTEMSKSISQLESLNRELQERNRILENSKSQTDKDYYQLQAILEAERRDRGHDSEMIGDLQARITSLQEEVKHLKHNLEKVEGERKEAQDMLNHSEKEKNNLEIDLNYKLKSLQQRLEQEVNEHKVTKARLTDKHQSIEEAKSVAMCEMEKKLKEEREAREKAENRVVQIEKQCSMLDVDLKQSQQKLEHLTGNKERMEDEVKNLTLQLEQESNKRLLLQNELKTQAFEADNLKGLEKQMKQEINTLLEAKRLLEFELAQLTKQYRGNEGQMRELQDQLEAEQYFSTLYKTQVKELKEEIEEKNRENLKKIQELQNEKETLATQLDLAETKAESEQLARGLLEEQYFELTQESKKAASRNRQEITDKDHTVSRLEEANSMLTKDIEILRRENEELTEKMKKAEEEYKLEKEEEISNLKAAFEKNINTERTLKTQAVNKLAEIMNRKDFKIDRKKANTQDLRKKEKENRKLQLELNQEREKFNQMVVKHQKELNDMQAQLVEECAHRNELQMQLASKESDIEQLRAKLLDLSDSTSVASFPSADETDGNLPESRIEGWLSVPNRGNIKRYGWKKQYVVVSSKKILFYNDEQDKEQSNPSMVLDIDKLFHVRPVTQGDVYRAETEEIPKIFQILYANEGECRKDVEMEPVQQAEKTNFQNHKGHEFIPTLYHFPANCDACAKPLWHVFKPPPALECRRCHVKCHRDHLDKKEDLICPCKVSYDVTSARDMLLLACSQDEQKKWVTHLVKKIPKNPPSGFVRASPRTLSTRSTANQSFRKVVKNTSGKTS

[39] = target: Tyrosine-protein kinase Fyn (Homo sapiens, UniProt P06241)
[40] = target: Serine/threonine-protein kinase Nek2 (Homo sapiens, UniProt P51955)
[41] = target: Cyclin-dependent kinase 8 (Homo sapiens, UniProt P49336); test: Navigating the Kinome. Panel member name: CDK8
[42] = target: Cyclin-dependent kinase 7 (Homo sapiens, UniProt P50613);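 also: value comes from a kinome-wide kinase profiling panel in which CDK7 is one member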
[43] = target: Vascular endothelial growth factor receptor 1 (Homo sapiens, UniProt P17948);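 also: measured within a kinome-wide profiling panel, FLT1 as the panel member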
[44] = target: Glycogen synthase kinase-3 beta (Homo sapiens, UniProt P49841);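 also: value comes from a broad kinome profiling panel, with GSK3B as the panel member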
[45] = target: Cyclin-dependent kinase 9 (Homo sapiens, UniProt P50750);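 also: value from the CDK9 entry of a kinome-spanning kinase panel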
[46] = target: BDNF/NT-3 growth factors receptor (Homo sapiens, UniProt Q16620);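 also: NTRK2 measured as one member of a broad kinome-wide kinase profiling panel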
[47] = target: cAMP-dependent protein kinase catalytic subunit alpha (Homo sapiens, UniProt P17612)
[48] = target: Dual specificity protein kinase CLK4 (Homo sapiens, UniProt Q9HAZ1)
[49] = target: Mitogen-activated protein kinase kinase kinase kinase 4 (Homo sapiens, UniProt O95819)
[50] = target: Macrophage-stimulating protein receptor (Homo sapiens, UniProt Q04912); test: Navigating the Kinome. Panel member name: MST1R
Sequence of Macrophage-stimulating protein receptor (Q04912 25-304 limits assumed): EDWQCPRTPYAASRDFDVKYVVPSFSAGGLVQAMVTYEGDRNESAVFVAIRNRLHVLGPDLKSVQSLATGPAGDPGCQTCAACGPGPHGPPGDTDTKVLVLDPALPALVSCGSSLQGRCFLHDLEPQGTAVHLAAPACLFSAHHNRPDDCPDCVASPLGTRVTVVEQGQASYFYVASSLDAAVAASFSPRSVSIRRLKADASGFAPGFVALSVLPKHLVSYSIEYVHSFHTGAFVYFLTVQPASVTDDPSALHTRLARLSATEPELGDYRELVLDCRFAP
Sequence of Macrophage-stimulating protein receptor (Q04912 310-1400 limits assumed): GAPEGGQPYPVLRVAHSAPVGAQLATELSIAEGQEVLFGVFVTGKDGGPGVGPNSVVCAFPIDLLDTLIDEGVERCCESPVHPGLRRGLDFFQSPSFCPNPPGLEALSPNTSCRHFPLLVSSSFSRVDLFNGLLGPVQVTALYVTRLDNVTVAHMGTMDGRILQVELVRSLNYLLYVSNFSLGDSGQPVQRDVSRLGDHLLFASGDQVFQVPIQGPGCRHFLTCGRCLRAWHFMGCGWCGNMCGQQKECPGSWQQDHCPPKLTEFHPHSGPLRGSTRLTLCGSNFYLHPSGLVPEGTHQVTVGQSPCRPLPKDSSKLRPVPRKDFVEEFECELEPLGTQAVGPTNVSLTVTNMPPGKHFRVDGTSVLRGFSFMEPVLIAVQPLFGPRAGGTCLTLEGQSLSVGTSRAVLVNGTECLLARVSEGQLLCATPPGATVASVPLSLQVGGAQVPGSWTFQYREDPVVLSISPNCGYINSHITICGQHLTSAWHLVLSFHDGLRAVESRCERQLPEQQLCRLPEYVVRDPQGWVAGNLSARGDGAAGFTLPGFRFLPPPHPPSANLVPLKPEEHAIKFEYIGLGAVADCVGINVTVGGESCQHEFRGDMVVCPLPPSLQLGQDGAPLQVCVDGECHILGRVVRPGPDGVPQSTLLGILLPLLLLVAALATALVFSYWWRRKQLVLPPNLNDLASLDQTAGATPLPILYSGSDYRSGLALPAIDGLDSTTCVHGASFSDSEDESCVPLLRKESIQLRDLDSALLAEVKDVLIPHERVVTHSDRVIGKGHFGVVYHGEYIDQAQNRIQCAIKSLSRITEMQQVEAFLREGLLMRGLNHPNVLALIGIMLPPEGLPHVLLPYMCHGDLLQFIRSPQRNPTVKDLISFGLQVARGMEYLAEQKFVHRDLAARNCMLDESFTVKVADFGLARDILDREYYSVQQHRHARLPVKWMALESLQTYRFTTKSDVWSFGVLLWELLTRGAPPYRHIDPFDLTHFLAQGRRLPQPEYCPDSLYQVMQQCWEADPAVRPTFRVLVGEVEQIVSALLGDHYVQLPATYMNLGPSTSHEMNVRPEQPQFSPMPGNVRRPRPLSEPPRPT

[51] = target: Macrophage colony-stimulating factor 1 receptor (Homo sapiens, UniProt P07333);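 also: value comes from the Navigating the Kinome screening panel, CSF1R member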
Sequence of Macrophage colony-stimulating factor 1 receptor (P07333 whole entry): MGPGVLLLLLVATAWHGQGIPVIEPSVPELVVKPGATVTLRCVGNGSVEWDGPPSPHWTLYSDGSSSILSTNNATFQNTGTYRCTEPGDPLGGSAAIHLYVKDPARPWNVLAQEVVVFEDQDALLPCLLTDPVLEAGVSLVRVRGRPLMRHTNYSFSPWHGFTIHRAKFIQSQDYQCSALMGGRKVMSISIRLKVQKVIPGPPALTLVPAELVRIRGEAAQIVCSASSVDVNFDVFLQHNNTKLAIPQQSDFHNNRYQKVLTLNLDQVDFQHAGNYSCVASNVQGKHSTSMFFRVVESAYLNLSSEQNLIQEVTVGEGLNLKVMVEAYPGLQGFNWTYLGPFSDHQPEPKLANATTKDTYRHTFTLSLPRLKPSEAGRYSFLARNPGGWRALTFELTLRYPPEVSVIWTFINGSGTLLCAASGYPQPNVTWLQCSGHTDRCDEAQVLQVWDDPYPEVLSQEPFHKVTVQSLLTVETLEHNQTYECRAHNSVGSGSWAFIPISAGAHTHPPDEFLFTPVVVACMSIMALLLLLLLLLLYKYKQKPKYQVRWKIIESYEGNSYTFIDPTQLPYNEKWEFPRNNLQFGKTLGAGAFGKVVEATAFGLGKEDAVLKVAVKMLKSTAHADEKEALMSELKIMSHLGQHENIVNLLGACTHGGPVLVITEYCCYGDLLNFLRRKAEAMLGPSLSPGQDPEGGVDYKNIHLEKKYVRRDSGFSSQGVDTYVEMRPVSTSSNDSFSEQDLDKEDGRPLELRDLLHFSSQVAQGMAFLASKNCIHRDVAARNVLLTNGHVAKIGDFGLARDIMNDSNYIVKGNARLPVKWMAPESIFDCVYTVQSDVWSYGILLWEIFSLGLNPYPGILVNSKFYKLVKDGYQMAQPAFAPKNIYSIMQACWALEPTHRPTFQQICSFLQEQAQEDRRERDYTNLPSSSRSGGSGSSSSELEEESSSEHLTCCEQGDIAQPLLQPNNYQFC

[52] = target: Dual specificity mitogen-activated protein kinase kinase 2 (Homo sapiens, UniProt P36507); test: Navigating the Kinome. Panel member name: MAP2K2
[53] = target: Dual specificity tyrosine-phosphorylation-regulated kinase 1A (Homo sapiens, UniProt Q13627);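 also: measured against DYRK1A as one member of a broad kinome profiling panel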
[54] = target: Inhibitor of nuclear factor kappa-B kinase subunit epsilon (Homo sapiens, UniProt Q14164); test: Navigating the Kinome. Panel member name: IKBKE
[55] = target: Calcium/calmodulin-dependent protein kinase type II subunit alpha (Homo sapiens, UniProt Q9UQM7); test: Navigating the Kinome. Panel member name: CAMK2A
[56] = target: Leukocyte tyrosine kinase receptor (Homo sapiens, UniProt P29376); test: Navigating the Kinome. Panel member name: LTK
[57] = target: Mitogen-activated protein kinase 14 (Homo sapiens, UniProt Q16539);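 also: part of a kinome-wide panel, MAPK14 entry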

SMILES: O=C(/C=C/c1ccccc1[N+](=O)[O-])NCCc1ccc(F)cc1
EC50 [1]: 25.8 µM (active)

IC50 [2]: 6.18 µM (active)
IC50 [3]: 5.86 µM (active)
SMILES: COc1ccc([S+]([O-])c2c(Cl)cnn(Cc3cccc4ccccc34)c2=O)cc1 (configuration not stated)

Ki [4]: > 2.51 µM (inactive)
Ki [5]: > 3.98 µM (inactive)
Ki [6]: 3.16 µM (active)
Ki [7]: > 3.16 µM (inactive)
Ki [8]: > 2.51 µM (inactive)
Ki [9]: > 3.16 µM (inactive)
Ki [10]: > 3.16 µM (inactive)
Ki [11]: > 6.31 µM (inactive)
Ki [12]: > 3.16 µM (inactive)
Ki [13]: > 3.16 µM (inactive)
Ki [14]: > 3.98 µM (inactive)
Ki (Activin receptor type-1): > 3.98 µM (inactive)
Ki [16]: > 5.01 µM (inactive)
Ki [17]: > 6.31 µM (inactive)
Ki (Aurora kinase A): > 1.58 µM (inactive)
Ki [18]: > 5.01 µM (inactive)
Ki [19]: > 3.98 µM (inactive)
Ki [20]: > 3.98 µM (inactive)
Ki [21]: > 5.01 µM (inactive)
Ki [22]: > 3.98 µM (inactive)
Ki (LIM domain kinase 1): > 3.16 µM (inactive)
Ki [23]: 5.01 µM (active)
Ki [24]: 1.26 µM (active)
Ki [25]: > 2.51 µM (inactive)
Ki [26]: > 2.51 µM (inactive)
Ki (Activated CDC42 kinase 1): > 3.98 µM (inactive)
Ki [27]: > 3.16 µM (inactive)
Ki [28]: > 3.16 µM (inactive)
Ki [29]: > 2.51 µM (inactive)
Ki [30]: > 2.51 µM (inactive)
Ki [31]: > 3.98 µM (inactive)
Ki [32]: 0.126 µM (active)
Ki [33]: > 2.51 µM (inactive)
Ki [34]: 0.398 µM (active)
Ki [35]: > 3.16 µM (inactive)
Ki [36]: > 2.51 µM (inactive)
Ki [37]: > 2.51 µM (inactive)
Ki (Aurora kinase B): > 3.98 µM (inactive)
Ki [38]: > 3.98 µM (inactive)
Ki [39]: > 6.31 µM (inactive)
Ki [40]: > 3.16 µM (inactive)
Ki [41]: > 3.98 µM (inactive)
Ki [42]: > 3.98 µM (inactive)
Ki [43]: > 3.98 µM (inactive)
Ki [44]: 2.51 µM (active)
Ki [45]: 0.1 µM (active)
Ki [46]: > 3.98 µM (inactive)
Ki [47]: > 1.26 µM (inactive)
Ki [48]: 0.316 µM (active)
Ki [49]: > 5.01 µM (inactive)
Ki [50]: > 3.98 µM (inactive)
Ki [51]: > 2.51 µM (inactive)
Ki [52]: > 3.98 µM (inactive)
Ki [53]: 1.58 µM (active)
Ki [54]: > 3.16 µM (inactive)
Ki [55]: > 3.98 µM (inactive)
Ki [56]: > 2.51 µM (inactive)
Ki [57]: > 3.98 µM (inactive)
SMILES: COc1ccccc1CNC(=N)Nc1nccc(-c2cccs2)n1
Ki [15]: > 5.01 µM (inactive)
